According to patent publication US20060069132A1, “Azolecarboxamide herbicides” (priority 2004, published 2006):

Assays:
Surinam grass = assay: Test C pre-/postemergence herbicide test; type: in vivo, Urochloa decumbens; conditions: preemergence; for Plant response rating (0 = no effect, 100 = complete control), Surinam Grass: 125 g ai/ha
Summary of the method: (§1)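 Visual ratings on a 0–100 scale (100 = complete control) made versus untreated controls after 12 to 14 greenhouse days. Test chemicals, formulated in surfactant-containing non-phytotoxic solvent, applied preemergence to planted seeds or postemergence to 1- to 4-leaf plants (2 to 18 cm).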

downy bromegrass = assay: Test C postemergence herbicide test; type: in vivo, Bromus tectorum
Summary of the method: (§2)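 Greenhouse test with a 12–14 day hold after application and visual comparison with controls. Emerged plants were 1- to 4-leaf stage (2–18 cm) when sprayed postemergence, and the paddy barnyardgrass was at 2 leaves under flooded conditions. 100 = complete control.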

Italian ryegrass = assay: Test C postemergence herbicide test; type: in vivo, Lolium multiflorum
Summary of the method: as §2

wild oat = assay: Test C postemergence herbicide test; type: in vivo, Avenafatua
Summary of the method: as §2

woolly cupgrass = assay: Test C pre-/postemergence herbicide test; type: in vivo, Eriochloa villosa; conditions: preemergence; for Plant response rating (0 = no effect, 100 = complete control), Cupgrass, Woolly: 125 g ai/ha
Summary of the method: as §1

cocklebur = assay: Test C pre-/postemergence herbicide test; type: in vivo, Xanthium strumarium; conditions: preemergence; for Plant response rating (0 = no effect, 100 = complete control), Cocklebur: 125 g ai/ha
Summary of the method: as §1

eastern black nightshade = assay: Test C pre-/postemergence herbicide test; type: in vivo, Solanum ptycanthum; conditions: preemergence; for Plant response rating (0 = no effect, 100 = complete control), Nightshade: 125 g ai/ha
Summary of the method: as §1

rice = assay: Test C flooded paddy test; type: in vivo, Oryza sativa
Summary of the method: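 Injury scored visually against controls on a 0 (no effect) to 100 (complete control) scale, 12 to 14 days after treatment in greenhouse. Flooded paddy plants treated at 2-leaf stage; postemergence plants at 1- to 4-leaf stage, 2 to 18 cm tall.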

lambsquarters = assay: Test C pre-/postemergence herbicide test; type: in vivo, Chenopodium album; conditions: preemergence; for Plant response rating (0 = no effect, 100 = complete control), Lambsquarters: 125 g ai/ha
Summary of the method: as §1

johnsongrass = assay: Test C pre-/postemergence herbicide test; type: in vivo, Sorghum halepense; conditions: preemergence; for Plant response rating (0 = no effect, 100 = complete control), Johnsongrass: 125 g ai/ha
Summary of the method: as §1

corn = assay: Test C pre-/postemergence herbicide test; type: in vivo, Zea mays; conditions: preemergence; for Plant response rating (0 = no effect, 100 = complete control), Corn: 125 g ai/ha
Summary of the method: as §1

wheat = assay: Test C postemergence herbicide test; type: in vivo, Triticum aestivum
Summary of the method: as §2

[1] = test system: common (oilseed) sunflower; assay: Test C pre-/postemergence herbicide test; type: in vivo, Helianthus annuus; conditions: preemergence; for Plant response rating (0 = no effect, 100 = complete control), Sunflower: 125 g ai/ha
Summary of the method: as §1

kochia = assay: Test C pre-/postemergence herbicide test; type: in vivo, Kochia scoparia; conditions: preemergence; for Plant response rating (0 = no effect, 100 = complete control), Kochia: 125 g ai/ha
Summary of the method: as §1

barnyardgrass = assay: Test A pre-/postemergence herbicide test; type: in vivo, Echinochloa crus-galli
Summary of the method: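 Visual injury scores on a 0–100 scale (100 = complete control) taken about ten days post-treatment in greenhouse against untreated controls; dash means no result. Treatments: preemergence soil spray and postemergence spray to runoff on one- to two-leaf plants 2 to 10 cm tall, surfactant-containing formulation.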

[2] = 500 g ai/ha, scale 0 to 100 (0 no effect, 100 complete control), visual, 12 to 14 days
[3] = Postemergence, 250 g ai/ha, scale 0 to 100, 0 no effect, 100 complete control
[4] = Postemergence, 500 g ai/ha, scale 0 to 100, 0 no effect, 100 complete control
[5] = postemergence, 125 g ai/ha, scale 0 to 100
[6] = postemergence, 62 g ai/ha, scale 0 to 100

## CCNC(=O)c1cccc(NC(=O)c2nn(C(C)(C)CC)nc2CC)c1 [Compound 376]
Surinam grass; 62 g ai/ha, scale 0 to 100
  Plant response rating, Surinam Grass: 40
Surinam grass
  Plant response rating (0 = no effect, 100 = complete control), Surinam Grass: 60
Surinam grass; 250 g ai/ha, scale 0-100
  Plant response rating, Surinam Grass: 90
Surinam grass; [2]
  Plant response rating, Surinam Grass: 100
Downy bromegrass; [3]
  Plant response rating, Bromegrass, Downy: 40
Downy bromegrass; [4]
  Plant response rating, Bromegrass, Downy: 50
Downy bromegrass; [5]
  Plant response rating, Bromegrass, Downy: 35
Downy bromegrass; [6]
  Plant response rating, Bromegrass, Downy: 35
Italian ryegrass; [4]
  Plant response rating, Ryegrass, Italian: 65
Italian ryegrass; [5]
  Plant response rating, Ryegrass, Italian: 55
Italian ryegrass; [6]
  Plant response rating, Ryegrass, Italian: 45
Wild oat; [4]
  Plant response rating, Oat, Wild: 60
Wild oat; [5]
  Plant response rating, Oat, Wild: 45
Wild oat; [6]
  Plant response rating, Oat, Wild: 40
Woolly cupgrass; 62 g ai/ha, scale 0 to 100
  Plant response rating, Cupgrass, Woolly: 5
Woolly cupgrass
  Plant response rating (0 = no effect, 100 = complete control), Cupgrass, Woolly: 30
Woolly cupgrass; 250 g ai/ha, scale 0-100
  Plant response rating, Cupgrass, Woolly: 75
Woolly cupgrass; [2]
  Plant response rating, Cupgrass, Woolly: 85
cocklebur; 62 g ai/ha, scale 0 to 100
  Plant response rating, Cocklebur: 0
cocklebur
  Plant response rating (0 = no effect, 100 = complete control), Cocklebur: 0
cocklebur; 250 g ai/ha, scale 0-100
  Plant response rating, Cocklebur: 0
cocklebur; [2]
  Plant response rating, Cocklebur: 5
Eastern black nightshade; 62 g ai/ha, scale 0 to 100
  Plant response rating, Nightshade: 95
Eastern black nightshade
  Plant response rating (0 = no effect, 100 = complete control), Nightshade: 100
Eastern black nightshade; 250 g ai/ha, scale 0-100
  Plant response rating, Nightshade: 100
Eastern black nightshade; [2]
  Plant response rating, Nightshade: 100
rice; 62 g ai/ha, scale 0 to 100
  Rice plant response rating: 70
rice; 125 g ai/ha, scale 0 to 100 (0 no effect, 100 complete control)
  Rice plant response rating: 75
rice; 250 g ai/ha, scale of 0 to 100, 0 is no effect, 100 is complete control
  Rice plant response rating: 75
rice; 500 g ai/ha, visual rating after 12 to 14 days, scale 0 to 100 (0 no effect, 100 complete control)
  Plant response rating, Rice: 80
lambsquarters; 62 g ai/ha, scale 0 to 100
  Plant response rating, Lambsquarters: 100
lambsquarters
  Plant response rating (0 = no effect, 100 = complete control), Lambsquarters: 100
lambsquarters; 250 g ai/ha, scale 0-100
  Plant response rating, Lambsquarters: 100
lambsquarters; [2]
  Plant response rating, Lambsquarters: 100
johnsongrass; 62 g ai/ha, scale 0 to 100
  Plant response rating, Johnsongrass: 60
johnsongrass
  Plant response rating (0 = no effect, 100 = complete control), Johnsongrass: 80
johnsongrass; 250 g ai/ha, scale 0-100
  Plant response rating, Johnsongrass: 100
johnsongrass; [2]
  Plant response rating, Johnsongrass: 100
corn; 62 g ai/ha, scale 0 to 100
  Plant response rating, Corn: 20
corn
  Plant response rating (0 = no effect, 100 = complete control), Corn: 40
corn; 250 g ai/ha, scale 0-100
  Plant response rating, Corn: 45
corn; [2]
  Plant response rating, Corn: 50
wheat; [4]
  Plant response rating, Wheat: 25
wheat; [5]
  Plant response rating, Wheat: 20
wheat; [6]
  Plant response rating, Wheat: 20
[1]; 62 g ai/ha, scale 0 to 100
  Plant response rating, Sunflower: 0
[1]
  Plant response rating (0 = no effect, 100 = complete control), Sunflower: 0
[1]; 250 g ai/ha, scale 0-100
  Plant response rating, Sunflower: 0
[1]; [2]
  Plant response rating, Sunflower: 0
kochia; 62 g ai/ha, scale 0 to 100
  Plant response rating, Kochia: 95
kochia
  Plant response rating (0 = no effect, 100 = complete control), Kochia: 100
kochia; 250 g ai/ha, scale 0-100
  Plant response rating, Kochia: 100
kochia; [2]
  Plant response rating, Kochia: 100

## CCc1nn(C(C)(C)C)nc1C(=O)Nc1cccc(C(=O)NC2CC2)c1 [Compound 417]
Surinam grass; 62 g ai/ha, scale 0 to 100
  Plant response rating, Surinam Grass: 0
Surinam grass
  Plant response rating (0 = no effect, 100 = complete control), Surinam Grass: 75
Surinam grass; [2]
  Plant response rating, Surinam Grass: 95
Downy bromegrass; [3]
  Plant response rating, Bromegrass, Downy: 50
Downy bromegrass; [4]
  Plant response rating, Bromegrass, Downy: 65
Downy bromegrass; [5]
  Plant response rating, Bromegrass, Downy: 40
Downy bromegrass; [6]
  Plant response rating, Bromegrass, Downy: 35
Italian ryegrass; [4]
  Plant response rating, Ryegrass, Italian: 60
Italian ryegrass; [5]
  Plant response rating, Ryegrass, Italian: 40
Italian ryegrass; [6]
  Plant response rating, Ryegrass, Italian: 35
Wild oat; [4]
  Plant response rating, Oat, Wild: 60
Wild oat; [5]
  Plant response rating, Oat, Wild: 40
Wild oat; [6]
  Plant response rating, Oat, Wild: 35
Woolly cupgrass; 62 g ai/ha, scale 0 to 100
  Plant response rating, Cupgrass, Woolly: 0
Woolly cupgrass
  Plant response rating (0 = no effect, 100 = complete control), Cupgrass, Woolly: 20
Woolly cupgrass; 250 g ai/ha, scale 0-100
  Plant response rating, Cupgrass, Woolly: 65
Woolly cupgrass; [2]
  Plant response rating, Cupgrass, Woolly: 85
cocklebur; 62 g ai/ha, scale 0 to 100
  Plant response rating, Cocklebur: 0
cocklebur
  Plant response rating (0 = no effect, 100 = complete control), Cocklebur: 0
cocklebur; 250 g ai/ha, scale 0-100
  Plant response rating, Cocklebur: 0
cocklebur; [2]
  Plant response rating, Cocklebur: 0
Eastern black nightshade; 62 g ai/ha, scale 0 to 100
  Plant response rating, Nightshade: 55
Eastern black nightshade
  Plant response rating (0 = no effect, 100 = complete control), Nightshade: 60
Eastern black nightshade; [2]
  Plant response rating, Nightshade: 95
lambsquarters; 62 g ai/ha, scale 0 to 100
  Plant response rating, Lambsquarters: 95
lambsquarters
  Plant response rating (0 = no effect, 100 = complete control), Lambsquarters: 100
lambsquarters; 250 g ai/ha, scale 0-100
  Plant response rating, Lambsquarters: 100
lambsquarters; [2]
  Plant response rating, Lambsquarters: 100
johnsongrass; 62 g ai/ha, scale 0 to 100
  Plant response rating, Johnsongrass: 100
johnsongrass
  Plant response rating (0 = no effect, 100 = complete control), Johnsongrass: 100
johnsongrass; 250 g ai/ha, scale 0-100
  Plant response rating, Johnsongrass: 100
johnsongrass; [2]
  Plant response rating, Johnsongrass: 100
corn; 62 g ai/ha, scale 0 to 100
  Plant response rating, Corn: 0
corn
  Plant response rating (0 = no effect, 100 = complete control), Corn: 0
corn; 250 g ai/ha, scale 0-100
  Plant response rating, Corn: 10
corn; [2]
  Plant response rating, Corn: 65
wheat; [4]
  Plant response rating, Wheat: 35
wheat; [5]
  Plant response rating, Wheat: 20
wheat; [6]
  Plant response rating, Wheat: 20
[1]; 62 g ai/ha, scale 0 to 100
  Plant response rating, Sunflower: 0
[1]
  Plant response rating (0 = no effect, 100 = complete control), Sunflower: 0
[1]; [2]
  Plant response rating, Sunflower: 0
barnyardgrass; Postemergence, 500 g ai/ha, 0 to 100 scale, 0 no effect, 100 complete control
  Barnyardgrass plant response rating: 65
barnyardgrass; Postemergence, 2000 g ai/ha, 0 to 100 scale, 0 no effect, 100 complete control
  Plant response rating, Barnyardgrass: 80
barnyardgrass; Preemergence, 2000 g ai/ha, visual rating, 0 to 100 scale (0 no effect, 100 complete control)
  Barnyardgrass plant response rating: 85
barnyardgrass; preemergence, 500 g ai/ha, visual injury, 0 to 100 scale (0 no effect, 100 complete control)
  Barnyardgrass plant response rating: 60
kochia; 62 g ai/ha, scale 0 to 100
  Plant response rating, Kochia: 0
kochia
  Plant response rating (0 = no effect, 100 = complete control), Kochia: 85
kochia; 250 g ai/ha, scale 0-100
  Plant response rating, Kochia: 100
kochia; [2]
  Plant response rating, Kochia: 100
